Assay results from patent US6359001B1, “Use of α-methyl-p-tyrosine to inhibit melanin production in iris melanocytes” (Pharmacia AB, priority 1997, dated 2002).
Read-outs that look alike come from different tables or passages of the source. Marks after values point to notes of the source that are not given here.

Legend:
monkey iris = details: cited from earlier work
iris = details: cited from earlier work
uveal melanocytes [1] = experiment: Melanin production of cultured uveal (iris) melanocytes; assay type: cell-based; details: for Melanin production: growth stage; for Melanin production by iris melanocytes (summary in words): in vitro experiments
Method: (§1) Uveal melanocytes were isolated and cultured from adult donor eyes. The iris was excised and placed in a dish with the posterior surface upward. The iris pigment epithelium was separated from the stroma after immersion in 0.25% trypsin solution (Gibco, USA) at 37° C. for 2 hour. The remaining iris stroma was placed in a 0.25% trypsin solution at 4° C. for 18 hours, followed by incubation at 37° C. for 1 hour. The isolated cells were collected. The trypsin solution was replaced by collagenase solution (400 U/ml, in F-12 medium, Sigma, USA) and incubated at 37° C. The collagenase solution was replaced, and the cells were collected, centrifuged, resuspended, and plated each hour for 3 hours.
(§2) The isolated uveal melanocytes were cultured in Falcon culture dishes (Becton Dickinson, USA) with FIC medium, which consisted of F-12 medium supplemented with 10% fetal bovine serum, 2 mM glutamine (all from Gibco), 10 ng/ml cholera toxin, 0.1 mM isobutylmethylxanthine, 50 μg/ml gentamicin (all from Sigma), and 20 ng/ml basic fibroblast growth factor (Promega, USA). The culture dishes were incubated in a humidified 5% CO2 atmosphere. The medium was changed three times a week. Geneticin (Sigma, USA); a cytotoxic agent, was added (100 μg/ml) for 3 to 7 days when necessary.
(§3) The 8 cell strains of uveal melanocytes used in the present study were isolated from donors with different iris color (brown and brown-blue).
(§4) Cultured uveal melanocytes were detached by trypsin-EDTA solution and counted in a hemocytometer, the cell suspensions were centrifuged, and the pellet was dissolved in 1 N NaOH. Melanin concentration was determined by measurement of optical density at 475 nm and compared with a standard curve obtained using synthetic melanin (Sigma). Melanin content was expressed as ng/cell.
Melanin production was calculated by determining the melanin content and the cell counts at the beginning and the end of each generation by the following formula: […]
where C0 and Ct represent the melanin content per cell at times 0 and time t, respectively; P is the population increase during time t, D is the doubling time of the uveal melanocytes; and Cp is melanin production per cell per day during time t.

tyrosinase = target: T1, tyrosinase (Homo sapiens, UniProt P14679); experiment: Tyrosinase activity in uveal melanocyte cell strains (adapted Pomerantz method, 3H2O release); assay type: cell-based; details: for Tyrosinase activity: growth stage
T1 construct: endogenous in cells; host or cells: primary uveal (iris) melanocyte cell strains from donor eyes (brown and brown-blue irises)
T1 sequence (P14679 19-529): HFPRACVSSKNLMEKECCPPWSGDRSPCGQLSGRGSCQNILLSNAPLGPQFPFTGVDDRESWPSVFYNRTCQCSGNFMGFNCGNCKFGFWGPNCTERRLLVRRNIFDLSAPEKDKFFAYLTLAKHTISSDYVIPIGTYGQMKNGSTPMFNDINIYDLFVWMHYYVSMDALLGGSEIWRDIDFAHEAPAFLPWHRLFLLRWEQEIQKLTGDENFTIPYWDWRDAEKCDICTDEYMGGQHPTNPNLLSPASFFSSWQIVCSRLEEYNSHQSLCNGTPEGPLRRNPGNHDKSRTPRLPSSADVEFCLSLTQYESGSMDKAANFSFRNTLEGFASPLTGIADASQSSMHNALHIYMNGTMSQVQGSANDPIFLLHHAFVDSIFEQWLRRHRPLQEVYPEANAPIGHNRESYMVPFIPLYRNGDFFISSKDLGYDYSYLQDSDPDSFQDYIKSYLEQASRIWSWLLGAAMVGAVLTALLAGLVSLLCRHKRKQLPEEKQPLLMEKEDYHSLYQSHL
Method: as §1, §2, §3
Tyrosinase activity was evaluated in nine cell strains using an adaptation of the Pomerantz method, which is based on the measurement of ^3H2O released by the enzymatic hydroxylation of tyrosine.

uveal melanocytes [2] = experiment: Melanin content of cultured uveal (iris) melanocytes; assay type: cell-based; details: for Melanin content: growth stage
Method: as §1, §2, §3, §4

[3] = clinical concentrations for the treatment of pheocromocytoma; cited from earlier work
[4] = 3 cell strains (brown-blue), latanoprost 10^−5 M, no α-methyl-p-tyrosine
[5] = 3 cell strains (brown-blue), latanoprost 10^−6 M, no α-methyl-p-tyrosine
[6] = 3 cell strains (brown-blue), latanoprost 10^−7 M, no α-methyl-p-tyrosine
[7] = 3 cell strains (brown-blue), latanoprost 10^−8 M, no α-methyl-p-tyrosine
[8] = 5 cell strains (brown), latanoprost 10^−5 M, no α-methyl-p-tyrosine
[9] = 5 cell strains (brown), latanoprost 10^−6 M, no α-methyl-p-tyrosine
[10] = 5 cell strains (brown), latanoprost 10^−7 M, no α-methyl-p-tyrosine
[11] = 5 cell strains (brown), latanoprost 10^−8 M, no α-methyl-p-tyrosine
[12] = brown and brown-blue iris strains, latanoprost at the highest molar concentrations
[13] = 3 cell strains (brown-blue), α-methyl-p-tyrosine 10^−5, no latanoprost
[14] = 3 cell strains (brown-blue), α-methyl-p-tyrosine 10^−5 with latanoprost 10^−5 M
[15] = 3 cell strains (brown-blue), α-methyl-p-tyrosine 10^−5 with latanoprost 10^−6 M
[16] = 3 cell strains (brown-blue), α-methyl-p-tyrosine 10^−5 with latanoprost 10^−7 M
[17] = 3 cell strains (brown-blue), α-methyl-p-tyrosine 10^−5 with latanoprost 10^−8 M
[18] = 5 cell strains (brown), α-methyl-p-tyrosine 10^−5, no latanoprost
[19] = 5 cell strains (brown), α-methyl-p-tyrosine 10^−5 with latanoprost 10^−5 M
[20] = 5 cell strains (brown), α-methyl-p-tyrosine 10^−5 with latanoprost 10^−6 M
[21] = 5 cell strains (brown), α-methyl-p-tyrosine 10^−5 with latanoprost 10^−7 M
[22] = 5 cell strains (brown), α-methyl-p-tyrosine 10^−5 with latanoprost 10^−8 M
[23] = α-methyl-p-tyrosine 10^−5 M added with latanoprost 10^−7 to 10^−5 M, brown and brown-blue irises

In the case of `CCCCC[C@H](O)/C=C/[C@H]1[C@H](O)CC(=O)[C@@H]1C/C=C\CCCC(=O)O` [PGE2], the “Pigmentation of the monkey iris” value (monkey iris; chronic treatment) is listed as “increased pigmentation”.

For `CCCCC[C@H](O)/C=C/[C@@H]1[C@@H](C/C=C\CCCC(=O)O)[C@@H](O)C[C@H]1O` [PGF2α], the “Pigmentation of the monkey iris” value (monkey iris; monkey, in vivo) is listed as “increased pigmentation”.

For `CCCCCCCC(=O)CC[C@@H]1[C@@H](C/C=C\CCCC(=O)OC(C)C)[C@@H](O)C[C@H]1O` [isopropyl unoprostone, 13,14-dihydro-15-keto-20-ethyl-PGF2α isopropylester], the “Iris colour change in patients” value (iris; human, in vivo) is given as “darkening of the iris”.

In the case of `CC(C)OC(=O)CCC/C=C\C[C@@H]1[C@@H](CC[C@@H](O)CCc2ccccc2)[C@H](O)C[C@@H]1O` [latanoprost, 13,14-dihydro-17-phenyl-18,19,20-tri-nor-PGF2αisopropyl ester], the Melanin production (uveal melanocytes [1]; [4]) was 0.0067* ng/cell/day, the Melanin production (uveal melanocytes [1]; [5]) was 0.0056* ng/cell/day and the Melanin production (uveal melanocytes [1]; [6]) was 0.0046* ng/cell/day. For the same compound, the Melanin production (uveal melanocytes [1]; [7]) was 0.0038 ng/cell/day, the Melanin production (uveal melanocytes [1]; [8]) was 0.0047* ng/cell/day and the Melanin production (uveal melanocytes [1]; [9]) was 0.0036 ng/cell/day. The Melanin production (uveal melanocytes [1]; [10]) was 0.0046* ng/cell/day, the Melanin production (uveal melanocytes [1]; [11]) was 0.0038 ng/cell/day and the “Melanin production (in words)” value (uveal melanocytes [1]; [12]) was “increased”. The Tyrosinase activity (tyrosinase; [4]) was 62.7* units, the Tyrosinase activity (tyrosinase; [5]) was 52.5* units and the Tyrosinase activity (tyrosinase; [6]) was 48.1* units. For the same compound, the Tyrosinase activity (tyrosinase; [7]) was 33.7 units, the Tyrosinase activity (tyrosinase; [8]) was 63.1* units and the Tyrosinase activity (tyrosinase; [9]) was 42.5 units. The Tyrosinase activity (tyrosinase; [10]) was 38.3 units, the Tyrosinase activity (tyrosinase; [11]) was 36.7 units and the “Tyrosinase activity (in words)” value (tyrosinase; [12]) was “increased”. The Melanin content (uveal melanocytes [2]; [4]) was 0.0151* ng/cell, the Melanin content (uveal melanocytes [2]; [5]) was 0.0149* ng/cell and the Melanin content (uveal melanocytes [2]; [6]) was 0.0142* ng/cell. For the same compound, the Melanin content (uveal melanocytes [2]; [7]) was 0.0127 ng/cell, the Melanin content (uveal melanocytes [2]; [8]) was 0.0149* ng/cell and the Melanin content (uveal melanocytes [2]; [9]) was 0.0161* ng/cell. For the same compound, the Melanin content (uveal melanocytes [2]; [10]) was 0.0151 ng/cell, the Melanin content (uveal melanocytes [2]; [11]) was 0.0141 ng/cell and the “Melanin content (in words)” value (uveal melanocytes [2]; [12]) was “increased”. The “Iris colour change in patients” value (iris; chronic therapy, sometimes noted) was “darkening of the iris” and the “Pigmentation of the monkey iris” value (monkey iris; chronic treatment) was “increased pigmentation”.

`CC(N)(Cc1ccc(O)cc1)C(=O)O` (stereo not drawn) [α-methyl-p-tyrosine, α-methyl-para-tyrosine] showed a Melanin production (uveal melanocytes [1]; [13]) of 0.0023 ng/cell/day, a Melanin production (uveal melanocytes [1]; [14]) of 0.0031 ng/cell/day and a Melanin production (uveal melanocytes [1]; [15]) of 0.0029 ng/cell/day. For the same compound, the Melanin production (uveal melanocytes [1]; [16]) was 0.0029 ng/cell/day, the Melanin production (uveal melanocytes [1]; [17]) was 0.0025 ng/cell/day and the Melanin production (uveal melanocytes [1]; [18]) was 0.0033 ng/cell/day. For the same compound, the Melanin production (uveal melanocytes [1]; [19]) was 0.0031 ng/cell/day, the Melanin production (uveal melanocytes [1]; [20]) was 0.0029 ng/cell/day and the Melanin production (uveal melanocytes [1]; [21]) was 0.0039 ng/cell/day. The Melanin production (uveal melanocytes [1]; [22]) was 0.0035 ng/cell/day, the “Melanin production by iris melanocytes (summary in words)” value (uveal melanocytes [1]) was “inhibited” and the “Melanin production by iris melanocytes (summary in words)” value (uveal melanocytes [1]; listed as α-methyl-para-tyrosine) was “significantly reduced”. For the same compound, the “Melanin production (in words)” value (uveal melanocytes [1]; [23]) was “significant decrease”, the “Catecholamine concentration in the body” value [3] was “markedly reduced” and the Tyrosinase activity (tyrosinase; [13]) was 32.4 units. It also gave a Tyrosinase activity (tyrosinase; [14]) of 39.5 units, a Tyrosinase activity (tyrosinase; [15]) of 34.6 units and a Tyrosinase activity (tyrosinase; [16]) of 31.7 units. It also gave a Tyrosinase activity (tyrosinase; [17]) of 34.6 units, a Tyrosinase activity (tyrosinase; [18]) of 33.6 units and a Tyrosinase activity (tyrosinase; [19]) of 31.5 units. It also gave a Tyrosinase activity (tyrosinase; [20]) of 34.6 units, a Tyrosinase activity (tyrosinase; [21]) of 38.7 units and a Tyrosinase activity (tyrosinase; [22]) of 35.5 units. For the same compound, the “Tyrosinase activity (in words)” value (tyrosinase; [23]) was “significant decrease”, the Melanin content (uveal melanocytes [2]; [13]) was 0.0122 ng/cell and the Melanin content (uveal melanocytes [2]; [14]) was 0.0128 ng/cell. For the same compound, the Melanin content (uveal melanocytes [2]; [15]) was 0.0125 ng/cell, the Melanin content (uveal melanocytes [2]; [16]) was 0.0123 ng/cell and the Melanin content (uveal melanocytes [2]; [17]) was 0.0119 ng/cell. The Melanin content (uveal melanocytes [2]; [18]) was 0.0133 ng/cell, the Melanin content (uveal melanocytes [2]; [19]) was 0.0131 ng/cell and the Melanin content (uveal melanocytes [2]; [20]) was 0.0137 ng/cell. For the same compound, the Melanin content (uveal melanocytes [2]; [21]) was 0.0136 ng/cell, the Melanin content (uveal melanocytes [2]; [22]) was 0.0135 ng/cell and the “Melanin content (in words)” value (uveal melanocytes [2]; [23]) was “significant decrease”.
